# Assays:
# HbA1c [1] = assay: 24-week study in subjects with type 2 diabetes: HbA1c levels; assay type: in vivo, human; conditions: 2 and 3 mg doses of INT131, daily for 24 weeks
# adiponectin [2] = assay: 14-day study in healthy subjects: serum adiponectin levels; assay type: in vivo, human
# Procedure: (§1) A study was conducted to determine the effect of INT131 on serum adiponectin levels. Thirty healthy subjects were randomly selected to receive either placebo, 0.1 mg INT131, 1 mg INT131 or 4 mg INT131 daily for 14 days. To measure adiponectin levels blood was drawn at Days 1, 4, 8 and 14.
# adiponectin [3] = assay: randomized, double-blind, placebo-controlled, 24-week study in subjects with type 2 diabetes: adiponectin levels; assay type: in vivo, human; conditions: for Mean Change in adiponectin from baseline (Week 0) to Week 24: LOCF, type 2 diabetes subjects
# Procedure: A randomized, double-blind, placebo-controlled, 24-week study was conducted in which adiponectin levels were measured. […] 367 subjects with type 2 diabetes (TD2)—a disease in which patient adiponectin levels are reduced—were randomly assigned to receive either 0.5, 1, 2 or 3 milligrams (“mg”) of INT131 besylate, 45 mg of pioglitazone or placebo daily for 24 weeks. To measure adiponectin levels blood was drawn at Weeks 0, 2, 6, 12 and 24.
# At baseline (Week 0) mean adiponectin levels were 1.94 micrograms per milliliter (“μg/mL”). The mean adiponectin levels at baseline and Week 24, and the mean change in adiponectin levels from baseline (Week 0) to Week 24 are disclosed in Table 1, below. The standard deviation for samples tested in each group is listed in (parenthesis). Mean baseline adiponectin values were similar for the treatment groups.
# diet-induced obese mice = conditions: 10 mg/kg of INT131, Lee et al. 2012; cited from earlier work
# HbA1c [4] = conditions: DePaoli et al., Diabetes Care 2014; cited from earlier work
# adiponectin [5] = assay: Example 3 (INT131 activates bone remodeling): 14-day study in healthy subjects; assay type: in vivo, human; conditions: 0.1 mg INT131 daily for 14 days
# Procedure: as §1
# [6] = DePaoli et al., Diabetes Care 2014; cited from earlier work
# [7] = tested on: mesenchymal stem cells (MSCs); assay: differentiation of mesenchymal stem cells into osteoblasts / adipocytes; assay type: cell-based; conditions: no method described
# [8] = 0.1 mg INT131 daily for 14 days
Structure (SMILES),reduction of HbA1c levels compared with 45 mg of pioglitazone (HbA1c [1]),change in adiponectin levels over placebo (adiponectin [2]; [8]),change in serum adiponectin levels from Day 1 to Day 14 (adiponectin [2]; [8]),change in serum adiponectin levels over placebo (adiponectin [2]; 1 mg or 4 mg INT131 daily for 14 days),Mean Change in adiponectin from baseline (Week 0) to Week 24 (adiponectin [3]; 0.5 mg INT131 besylate daily),Mean Change in adiponectin from baseline (Week 0) to Week 24 (adiponectin [3]; 1 mg INT131 besylate daily),"treatment comparison with placebo, adiponectin levels (adiponectin [3]; 1 mg, 2 mg and 3 mg doses of INT131, p≤0.0109)",Mean Change in adiponectin from baseline (Week 0) to Week 24 (adiponectin [3]; 2 mg INT131 besylate daily),Mean Change in adiponectin from baseline (Week 0) to Week 24 (adiponectin [3]; 3 mg INT131 besylate daily),effect on bone mass (diet-induced obese mice),efficacy in reducing HbA1c levels compared with 45 mg of pioglitazone (HbA1c [4]),change from Day 1 to Day 14 (sentence breaks off) (adiponectin [5]),"edema, weight gain and hemodilution compared with subjects taking pioglitazone [6]",differentiation of mesenchymal stem cells (MSCs) into osteoblasts [7],increase of adipocytes [7],Mean Change in adiponectin from baseline (Week 0) to Week 24 (adiponectin [3]; 45 mg pioglitazone daily)
O=S(=O)(Nc1cc(Cl)c(Oc2cnc3ccccc3c2)c(Cl)c1)c1ccc(Cl)cc1Cl [INT131],at least as well,no significant change,no significant change,significant change,0.56 µg/mL,1.28 µg/mL,statistically significant,3.27 µg/mL,3.83 µg/mL,does not affect bone mass,equally efficacious,no significant,less,promotes,does not result in an increase,
"CCc1ccc(CCOc2ccc(CC3SC(=O)NC3=O)cc2)nc1 (stereo not shown) [pioglitazone, reference compound]",,,,,,,,,,,,,,,,2.96 µg/mL
